# Assay results from patent US20240158446A1, “CYCLIC COMPOUND HAVING SELECTIVE INHIBITORY ACTION ON KRAS OVER HRAS AND NRAS” (CHUGAI SEIYAKU KABUSHIKI KAISHA, priority 2021, published 2024).
# Like-named read-outs stand apart in the source and are kept apart here. Where a SMILES comes first, the peptide text is derived from it. Bridges are numbered along the chain shown (N, C = ends). [ ]: non-standard residue; d: D form. The star is where a group is joined. hPhe(3-Cl-4-CF3) = N[C@@H](CCc1ccc(C(F)(F)F)c(Cl)c1)C(=O)O; NPrPhe(4-CF3) = CCCN[C@@H](Cc1ccc(C(F)(F)F)cc1)C(=O)O; NMeGly(cPent) = CN[C@H](C(=O)O)C1CCCC1; NMeD = CN[C@@H](CC(=O)O)C(=O)O; NMeL = CN[C@@H](CC(C)C)C(=O)O; Azetidin(1-yl) = C1CN(*)C1; Morpholide = C1CN(*)CCO1; dNMeA = CN[C@H](C)C(=O)O; Ac5c = NC1(C(=O)O)CCCC1; Sar = CNCC(=O)O
# What was measured:
# [1] = molecular target: GDP-bound KRAS wild-type protein (Homo sapiens, UniProt P01116); experiment: Binding to KRAS by surface plasmon resonance (SPR), Single Cycle Kinetics; details: GDP-bound KRAS wild-type protein, read-out: KRAS KD
# [2] = molecular target: GDP-bound HRAS wild-type protein (Homo sapiens, UniProt P01112); experiment: Binding to HRAS by surface plasmon resonance (SPR), Single Cycle Kinetics; details: SPR, GDP-bound HRAS wild-type protein vs GDP-bound KRAS wild-type protein
# [3] = molecular target: GDP-bound NRAS wild-type protein (Homo sapiens, UniProt P01111); experiment: Binding to NRAS by surface plasmon resonance (SPR), Single Cycle Kinetics; details: SPR, GDP-bound NRAS wild-type protein vs GDP-bound KRAS wild-type protein
# [4] = SPR, Single Cycle Kinetics, 1:1 binding model
# [5] = SPR Single Cycle Kinetics, 1:1 binding model
# Sequence of GDP-bound HRAS wild-type protein (P01112 whole entry): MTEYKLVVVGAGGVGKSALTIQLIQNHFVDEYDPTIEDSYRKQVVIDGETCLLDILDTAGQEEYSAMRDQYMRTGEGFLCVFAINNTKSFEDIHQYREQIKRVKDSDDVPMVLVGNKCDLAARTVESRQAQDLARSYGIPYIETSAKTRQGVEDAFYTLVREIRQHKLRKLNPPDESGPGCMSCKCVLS
# Sequence of GDP-bound NRAS wild-type protein (P01111 whole entry): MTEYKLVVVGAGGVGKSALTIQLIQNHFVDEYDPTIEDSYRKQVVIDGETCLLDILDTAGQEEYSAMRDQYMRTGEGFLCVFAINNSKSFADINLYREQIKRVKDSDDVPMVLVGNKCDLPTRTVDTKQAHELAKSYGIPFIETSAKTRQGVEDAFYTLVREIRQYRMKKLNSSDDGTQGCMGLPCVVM
# Sequence of GDP-bound KRAS wild-type protein (P01116 whole entry): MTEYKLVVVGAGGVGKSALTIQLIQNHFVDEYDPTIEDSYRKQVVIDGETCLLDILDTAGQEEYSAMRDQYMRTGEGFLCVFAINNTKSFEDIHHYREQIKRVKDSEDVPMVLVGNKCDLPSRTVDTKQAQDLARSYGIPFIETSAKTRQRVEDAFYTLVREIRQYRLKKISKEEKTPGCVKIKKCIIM
Structure (SMILES),"Kd ([1]; SPR, Single Cycle Kinetics) [nM]","Kd [1, 5] [nM]",HRAS/KRAS (ratio of KD value for HRAS to KD value for KRAS) [2],NRAS/KRAS (ratio of KD value for NRAS to KD value for KRAS) [3],other results
CC[C@H](C)[C@@H]1NC(=O)[C@H](CC(C)C)N(C)C(=O)C[C@@H](C(=O)N2CCOCC2)N(C)C(=O)[C@H](C2CCCC2)N(C)C(=O)C2(CCC2)NC(=O)[C@@H]2C[C@@H](OCC3CC3)CN2C(=O)[C@H](CCc2cc(F)c(C(F)(F)F)c(F)c2)NC(=O)CN(C)C(=O)[C@H](Cc2ccc(C(F)(F)F)cc2)N2CCCCC[C@@H](C2=O)N(C)C(=O)CN(C)C1=O [PP1005],1.1,–,A (a compound having 10 or more and less than 20 is denoted as A),A (a compound having 10 or more and less than 20 is denoted as A),–
CCO[C@@H]1C[C@H]2C(=O)NC3(CC(C)(C)C3)C(=O)N(C)[C@@H](C(CC)CC)C(=O)N(C)[C@H](C(=O)N(C)C)CC(=O)N(C)[C@@H](CC)C(=O)N[C@@H]([C@@H](C)CC)C(=O)N(C)CC(=O)N(C)[C@H]3C/C=C\CCN(C3=O)[C@@H](Cc3ccc(C)cc3)C(=O)N(C)CC(=O)N[C@@H](CCc3ccc(Cl)c(Cl)c3)C(=O)N2C1 [PP2188],0.71,–,A (a compound having 10 or more and less than 20 is denoted as A),AA (a compound having 20 or more is denoted as AA),–
CCO[C@@H]1C[C@H]2C(=O)NC3(CCC3)C(=O)N(C)[C@@H](C3CCCC3)C(=O)N(C)[C@H](C(=O)N3CCOCC3)CC(=O)N(C)[C@@H](CC(C)C)C(=O)N[C@@H]([C@@H](C)CC)C(=O)N(C)CC(=O)N(C)[C@H]3CC/C=C(/C)CN(C3=O)[C@@H](Cc3ccc(C(F)(F)F)cc3)C(=O)N(C)CC(=O)N[C@@H](CCc3cc(F)c(C(F)(F)F)c(F)c3)C(=O)N2C1 [PP1333],–,–,–,–,"Kd [1, 4]: 58 nM; HRAS/KRAS (ratio of KD value for HRAS to KD value for KRAS) ([2]; KD ratio class): B (a compound having 3 or more and less than 10 is denoted as B); NRAS/KRAS (ratio of KD value for NRAS to KD value for KRAS) ([3]; KD ratio class): C (A compound having a KD ratio of 0.1 or more and less than 3 is denoted as C)"
CCO[C@@H]1C[C@H]2C(=O)NC3(CCC3)C(=O)N(C)[C@@H](C3CCCC3)C(=O)N(C)[C@H](C(=O)N3CCOCC3)CC(=O)N(C)[C@@H](CC3CC3)C(=O)N[C@@H]([C@@H](C)CC)C(=O)N(C)CC(=O)N(C)[C@H]3C/C=C\CCN(C3=O)[C@@H](Cc3ccc(F)cc3)C(=O)N(C)CC(=O)N[C@@H](CCc3cc(F)c(C(F)(F)F)c(F)c3)C(=O)N2C1 [PP1496],–,–,–,–,"Kd [1, 4]: 0.26 nM; HRAS/KRAS (ratio of KD value for HRAS to KD value for KRAS) ([2]; KD ratio class): B (a compound having 3 or more and less than 10 is denoted as B); NRAS/KRAS (ratio of KD value for NRAS to KD value for KRAS) ([3]; KD ratio class): A (a compound having 10 or more and less than 20 is denoted as A)"
CCCOC[C@H]1C(=O)N[C@@H]([C@@H](C)CC)C(=O)N(C)CC(=O)N(C)[C@H]2C/C=C\CCN(C2=O)[C@@H](Cc2ccc(C(F)(F)F)cc2)C(=O)N(C)CC(=O)N[C@@H](CCc2cc(F)c(C(F)(F)F)c(F)c2)C(=O)N2C[C@H](OCC)C[C@H]2C(=O)NC2(CC(C)(C)C2)C(=O)N(C)[C@@H](C2CCCC2)C(=O)N(C)[C@H](C(=O)N(CC)CC)CC(=O)N1C [PP1575],–,–,–,–,"Kd [1, 4]: 0.55 nM; HRAS/KRAS (ratio of KD value for HRAS to KD value for KRAS) ([2]; KD ratio class): B (a compound having 3 or more and less than 10 is denoted as B); NRAS/KRAS (ratio of KD value for NRAS to KD value for KRAS) ([3]; KD ratio class): B (a compound having 3 or more and less than 10 is denoted as B)"
CCCN1C(=O)CN(C)C(=O)CN(C)C(=O)[C@H]([C@@H](C)CC)NC(=O)[C@H](CC(C)C)N(C)C(=O)C[C@@H](C(=O)N2CCC2)N(C)C(=O)[C@H](C2CCCC2)N(C)C(=O)C2(CCCC2)NC(=O)[C@@H]2CCCN2C(=O)[C@H](CCc2ccc(C(F)(F)F)c(Cl)c2)NC(=O)CN(C)C(=O)[C@@H]1Cc1ccc(C(F)(F)F)cc1 [PP0172] ([NMeL]I[Sar][Sar][NPrPhe(4-CF3)][Sar][hPhe(3-Cl-4-CF3)]P[Ac5c][NMeGly(cPent)][NMeD]-{Azetidin(1-yl)}; lactam N-11),–,0.13,C (A compound having a KD ratio of 0.1 or more and less than 3 is denoted as C),B (a compound having 3 or more and less than 10 is denoted as B),–
CCO[C@@H]1C[C@H]2C(=O)NC3(CCCC3)C(=O)N(C)[C@@H](C3CCCC3)C(=O)N(C)[C@H](C(=O)N3CCOCC3)CC(=O)N(C)[C@@H](CC)C(=O)N[C@@H]([C@@H](C)CC)C(=O)N(C)CC(=O)N(C)[C@H]3CC(C)=CCN(C3=O)[C@@H](Cc3ccc(C(F)(F)F)cc3)C(=O)N(C)CC(=O)N[C@@H](CCc3cc(F)c(C(F)(F)F)c(F)c3)C(=O)N2C1 [PP1043],2.4,–,C (A compound having a KD ratio of 0.1 or more and less than 3 is denoted as C),C (A compound having a KD ratio of 0.1 or more and less than 3 is denoted as C),–

# The next lines start with results.
"Kd ([1]; SPR, Single Cycle Kinetics) [nM]","Kd [1, 5] [nM]",Structure (SMILES),HRAS/KRAS (ratio of KD value for HRAS to KD value for KRAS) [2],NRAS/KRAS (ratio of KD value for NRAS to KD value for KRAS) [3],other results
0.42,–,CCCN1CC(=O)N(C)[C@H]2C/C=C\CCN(C2=O)[C@@H](Cc2ccc(C)cc2)C(=O)N(C)CC(=O)N[C@@H](CCc2ccc(C(F)(F)F)c(OC)c2)C(=O)N2C[C@H](OCC)C[C@H]2C(=O)NC2(CC(C)(C)C2)C(=O)N(C)[C@@H](C2CCCC2)C(=O)N(C)[C@H](C(=O)N(C)C)CC(=O)N(C)[C@@H](CC)C(=O)N[C@@H]([C@@H](C)CC)C1=O [PP2096],A (a compound having 10 or more and less than 20 is denoted as A),A (a compound having 10 or more and less than 20 is denoted as A),–
0.079,–,"CCC[C@H]1C(=O)N[C@@H]([C@@H](C)CC)C(=O)N(C2CC2)CC(=O)N(C)[C@H]2C/C=C\CCN(C2=O)[C@@H](Cc2ccc(C)cc2)C(=O)N(C)CC(=O)N[C@@H](CCc2ccc(C(F)(F)F)c(OC)c2)C(=O)N2C[C@H](OCC)C[C@H]2C(=O)N(C)C2(CCC2)C(=O)N(C)[C@@H](C2CCCC2)C(=O)N(C)[C@H](C(=O)N(C)C)CC(=O)N1C [PP2328, (2S,8S,12R,14S,20S,23S,27S,30S,36S,38Z)-20-cyclopentyl-32-cyclopropyl-12-ethoxy-8-[2-[3-methoxy-4-(trifluoromethyl)phenyl]ethyl]-N,N,4,16,19,22,26,35-octamethyl-30-[(1S)-1-methylpropyl]-3,6,9,15,18,21,25,28,31,34,42-undecaoxo-27-propyl-2-(p-tolylmethyl)spiro[1,4,7,10,16,19,22,26,29,32,35-undecazatricyclo[34.5.1.0^10,14]dotetracont-38-ene-17,1′-cyclobutane]-23-carboxamide]",A (a compound having 10 or more and less than 20 is denoted as A),A (a compound having 10 or more and less than 20 is denoted as A),–
–,0.059,CCO[C@@H]1C[C@H]2C(=O)NC3(CCC3)C(=O)N(C)[C@@H](C3CCCC3)C(=O)N(C)[C@H](C(=O)N3CCOCC3)CC(=O)N(C)[C@@H](CC(C)C)C(=O)N[C@@H](C3CC(F)(F)C3)C(=O)N(C)CC(=O)N(C)[C@H]3CCCCN(C3=O)[C@@H](Cc3ccc(C(F)(F)F)cc3)C(=O)N(C)CC(=O)N[C@@H](CCc3cc(F)c(C(F)(F)F)c(F)c3)C(=O)N2C1 [PP0807],–,–,HRAS/KRAS (ratio of KD value with respect to HRAS to KD value with respect to KRAS) [2]: B (a compound having 3 or more and less than 10 is denoted as B); NRAS/KRAS (ratio of KD value with respect to NRAS to KD value with respect to KRAS) [3]: B (a compound having 3 or more and less than 10 is denoted as B)
–,3.4,CCCN1C(=O)CN(C)C(=O)CN(C)C(=O)[C@H]([C@@H](C)CC)NC(=O)[C@H](CC(C)C)N(C)C(=O)C[C@@H](C(=O)N2CCOCC2)N(C)C(=O)[C@H](C2CCCC2)N(C)C(=O)C2(CCCC2)NC(=O)[C@@H]2CCCN2C(=O)[C@H](CCc2ccc(C(F)(F)F)c(Cl)c2)NC(=O)[C@@H](C)N(C)C(=O)[C@@H]1Cc1ccc(C(F)(F)F)cc1 [PP0148] ([NMeL]I[Sar][Sar][NPrPhe(4-CF3)][dNMeA][hPhe(3-Cl-4-CF3)]P[Ac5c][NMeGly(cPent)][NMeD]-Morpholide; lactam N-11),B (a compound having 3 or more and less than 10 is denoted as B),B (a compound having 3 or more and less than 10 is denoted as B),–
–,0.17,CC[C@H](C)[C@@H]1NC(=O)[C@H](CC(C)C)N(C)C(=O)C[C@@H](C(=O)N2CCOCC2)N(C)C(=O)[C@H](C2CCCC2)N(C)C(=O)C2(CCCC2)NC(=O)[C@@H]2CCCN2C(=O)[C@H](CCc2ccc(C(F)(F)F)c(Cl)c2)NC(=O)CN(C)C(=O)[C@H](Cc2ccc(Cl)cc2)N2CC=CC[C@@H](C2=O)N(C)C(=O)CN(C)C1=O [PP0533],–,–,HRAS/KRAS (ratio of KD value with respect to HRAS to KD value with respect to KRAS) [2]: C (A compound having a KD ratio of 0.1 or more and less than 3 is denoted as C); NRAS/KRAS (ratio of KD value with respect to NRAS to KD value with respect to KRAS) [3]: C (A compound having a KD ratio of 0.1 or more and less than 3 is denoted as C)
–,0.54,CC[C@H](C)[C@@H]1NC(=O)[C@H](CC(C)C)N(C)C(=O)C[C@@H](C(=O)N2CCOCC2)N(C)C(=O)[C@H](C2CCCC2)N(C)C(=O)C2(CCCC2)NC(=O)[C@@H]2CCCN2C(=O)[C@H](CCc2ccc(C(F)(F)F)c(Cl)c2)NC(=O)CN(C)C(=O)[C@H](Cc2ccc(C(F)(F)F)cc2)N2CC/C=C\C[C@@H](C2=O)N(C)C(=O)CN(C)C1=O [PP0463],–,–,HRAS/KRAS (ratio of KD value with respect to HRAS to KD value with respect to KRAS) [2]: A (a compound having 10 or more and less than 20 is denoted as A); NRAS/KRAS (ratio of KD value with respect to NRAS to KD value with respect to KRAS) [3]: A (a compound having 10 or more and less than 20 is denoted as A)
4.8,–,CCO[C@@H]1C[C@H]2C(=O)NC3(CCC3)C(=O)N(C)[C@@H](C3CCCC3)C(=O)N(CCC3CCCC3)[C@H](C(=O)N(C)C)CC(=O)N(C)[C@@H](CC(C)C)C(=O)N[C@@H]([C@@H](C)CC)C(=O)N(C)CC(=O)N(C)[C@H]3CCCCCN(C3=O)[C@@H](Cc3ccc(F)cc3)C(=O)N(C)CC(=O)N[C@@H](CCc3ccc(C(F)(F)F)c(Cl)c3)C(=O)N2C1 [PP0976],B (a compound having 3 or more and less than 10 is denoted as B),B (a compound having 3 or more and less than 10 is denoted as B),–
